13 molecules from PubChem BioAssay (NCI) can be followed below.

Among the test systems are SF-539 CNS; HCT-15 colon; SK-MEL-5 melanoma; MCF7 breast; OVCAR-3 ovarian; LOX IMVI melanoma; SNB-19 CNS; SR leukemia; EKVX NSCLC; MDA-N.
Holding throughout (assay): NCI-60 cell line screen, 48 h

Molecules are shown by their SMILES. Several values for one entry are separate records, joined by “and”; a condition that tells them apart may be missing. Equal entries are not always repeated.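 Tested at 5 concentrations; 48 h exposure; 96-well plates; endpoints linearly interpolated, else capped at highest concentration. At the GI50, growth is halved. The concentration for full growth arrest is given as TGI.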 Where only a bound is given, the exact number is not on record here.

Consider `COc1ccc(Cn2c(=O)c(OS(=O)(=O)C(F)(F)F)c(C)c3cc4ccccc4cc32)cc1`, for which the TGI in the experiment on SF-539 CNS, with HCT-15 colon, in the experiment with SK-MEL-5 melanoma, with MCF7 breast, with OVCAR-3 ovarian and with LOX IMVI melanoma was over 100 µM throughout. Besides, the TGI in the experiment with SNB-19 CNS, in the experiment on SR leukemia, in the experiment with EKVX NSCLC and in the experiment on MDA-N was over 100 µM each time.
Take `O=C(O)c1c(CC(Cc2ccccc2)C(=O)O)ccc2c1CCC2` (stereo unspecified): the TGI in the experiment with SF-539 CNS, in the experiment with HCT-15 colon, with SK-MEL-5 melanoma, in the experiment with MCF7 breast, in the experiment with OVCAR-3 ovarian and in the experiment on LOX IMVI melanoma was over 100 µM in each case. Further, the TGI in the experiment with SNB-19 CNS, in the experiment on SR leukemia, with EKVX NSCLC and in the experiment on MDA-N was over 100 µM each time.
As to `CN1CCC(O)(OC(=O)C(c2ccccc2)C2(O)CCCC2)CC1` (stereo unspecified), the TGI in the experiment with SF-539 CNS, with HCT-15 colon, in the experiment on SK-MEL-5 melanoma, with MCF7 breast, in the experiment on OVCAR-3 ovarian and with LOX IMVI melanoma was over 100 µM in each case. In addition, the TGI in the experiment on SNB-19 CNS, in the experiment on SR leukemia, with EKVX NSCLC and in the experiment with MDA-N was over 100 µM throughout.
`CC(C)(C)c1cc(C(C)(C)C)c(SC2OC(CO)C(O)C(O)C2O)c(O)c1O` (stereo unspecified): the TGI in the experiment on SF-539 CNS was 12.7 µM; in the experiment with HCT-15 colon, 18.8 µM; in the experiment on SK-MEL-5 melanoma it was 18.6 µM; in the experiment with MCF7 breast, over 34.2 µM; in the experiment on OVCAR-3 ovarian it was 28.4 µM; with LOX IMVI melanoma it was 22.9 µM. The TGI in the experiment on SNB-19 CNS was 24.5 µM; in the experiment on SR leukemia, over 53 µM; with EKVX NSCLC, over 53.3 µM; in the experiment with MDA-N, 15.8 µM.
Take `Oc1ccc(Nc2nc(Cl)c3[nH]cnc3n2)cc1`: the TGI in the experiment with SF-539 CNS, in the experiment on HCT-15 colon, in the experiment on SK-MEL-5 melanoma, with MCF7 breast, in the experiment with OVCAR-3 ovarian and in the experiment with LOX IMVI melanoma was over 100 µM throughout. Moreover, the TGI in the experiment with SNB-19 CNS, in the experiment on SR leukemia, with EKVX NSCLC and in the experiment on MDA-N was over 100 µM each time.
With `COc1ccc(-c2csc3c2[N+]2(C)C=CC=C2C3N2CCCC2)cc1` (stereo unspecified), the TGI in the experiment with SF-539 CNS is 57.7 µM; in the experiment on HCT-15 colon it was over 100 µM; in the experiment with SK-MEL-5 melanoma, 28.8 µM; in the experiment with MCF7 breast, over 100 µM; with OVCAR-3 ovarian it was 52.6 µM; in the experiment on LOX IMVI melanoma it was over 100 µM. Moreover, the TGI in the experiment with SNB-19 CNS was over 100 µM; with SR leukemia, 35.4 µM; in the experiment with EKVX NSCLC, over 100 µM; in the experiment with MDA-N it was over 100 µM.
As to `O=C(Oc1cncc(Cl)c1)c1cc2ccccc2sc1=O`, the TGI is 57.9 µM in the experiment on SF-539 CNS; over 100 µM with HCT-15 colon; over 100 µM in the experiment on SK-MEL-5 melanoma; over 100 µM in the experiment on MCF7 breast; over 100 µM in the experiment on OVCAR-3 ovarian; over 100 µM in the experiment with LOX IMVI melanoma. Besides, the TGI is over 100 µM with SNB-19 CNS, 76.8 µM in the experiment on SR leukemia, over 100 µM in the experiment on EKVX NSCLC and over 100 µM in the experiment on MDA-N.
Turning to `CCN(CC)CC[n+]1ccc2c(C)c3[nH]c4ccccc4c3c(C)c2c1`, the GI50 was 0.921 µM in the experiment with SF-539 CNS; 0.239 µM in the experiment on SK-MEL-5 melanoma; 0.323 µM in the experiment with MCF7 breast; 0.934 µM in the experiment with OVCAR-3 ovarian; 0.251 µM with SNB-19 CNS; 1.48 µM in the experiment on EKVX NSCLC. Moreover, the TGI was 1.66 µM and 5.78 µM and 2.12 µM in the experiment with SF-539 CNS; 80.5 µM and 110 µM in the experiment with HCT-15 colon; 1.57 µM and 1.28 µM and 2.45 µM in the experiment on SK-MEL-5 melanoma; 7.36 µM and 5.5 µM and 2.47 µM in the experiment on MCF7 breast; 2.02 µM and 4.55 µM and 2.07 µM in the experiment with OVCAR-3 ovarian; 2.13 µM and 3.73 µM and 16.3 µM in the experiment with LOX IMVI melanoma. Further, the TGI in the experiment on SNB-19 CNS was 1.41 µM and 1.48 µM and 1.33 µM; with SR leukemia it was 3.01 µM; in the experiment with EKVX NSCLC, 8.97 µM and 16.4 µM and 4.14 µM; in the experiment with MDA-N, 1.99 µM.
`CCOC(=O)/C=C(/C(=O)OCC)n1cc(C)c(=O)n(Cc2cn(CCCCOC(C)=O)nn2)c1=O`: the TGI in the experiment with SF-539 CNS was 19.1 µM; in the experiment with HCT-15 colon it was over 100 µM; in the experiment on SK-MEL-5 melanoma, over 100 µM; in the experiment on MCF7 breast, 42.2 µM; in the experiment on OVCAR-3 ovarian, 33.4 µM; in the experiment with LOX IMVI melanoma it was 49.5 µM. Also, the TGI in the experiment on SNB-19 CNS was 41.9 µM; in the experiment on SR leukemia, 62.4 µM; in the experiment on EKVX NSCLC, 22.7 µM; in the experiment with MDA-N, over 100 µM.
`C#CCn1c(I)cc2c(c1=O)COC(=O)[C@]2(O)CC`: the TGI in the experiment with SF-539 CNS, in the experiment with HCT-15 colon, with SK-MEL-5 melanoma, in the experiment with MCF7 breast, in the experiment with OVCAR-3 ovarian and in the experiment with LOX IMVI melanoma was over 100 µM throughout. For the same molecule, the TGI in the experiment with SNB-19 CNS, with SR leukemia, with EKVX NSCLC and with MDA-N was over 100 µM throughout.
With `CCOP(=O)(OCC)C(c1ccccc1)N(C(=O)NC(F)(F)F)c1ccc(C)cc1` (stereo unspecified), the TGI with SF-539 CNS, in the experiment with HCT-15 colon, in the experiment on SK-MEL-5 melanoma, with MCF7 breast, in the experiment on OVCAR-3 ovarian and in the experiment with LOX IMVI melanoma was over 100 µM in each case. Besides, the TGI in the experiment on SNB-19 CNS, in the experiment with SR leukemia, in the experiment on EKVX NSCLC and in the experiment on MDA-N was over 100 µM throughout.
In the case of `COC(=O)c1ccc(C)cc1C1CN=NC12Cc1cccc(C)c1C2=O` (stereo unspecified), the TGI was over 100 µM with SF-539 CNS; over 100 µM in the experiment on HCT-15 colon; 47.6 µM in the experiment on SK-MEL-5 melanoma; over 100 µM in the experiment on MCF7 breast; over 100 µM with OVCAR-3 ovarian; 63.9 µM in the experiment on LOX IMVI melanoma. The TGI with SNB-19 CNS was over 100 µM; in the experiment on SR leukemia it was over 100 µM; with EKVX NSCLC it was over 100 µM; with MDA-N, 70.9 µM.
Regarding `COC1(C)CCC(OS(C)(=O)=O)CO1` (stereo unspecified), the TGI with SF-539 CNS, in the experiment on HCT-15 colon, with SK-MEL-5 melanoma, in the experiment on MCF7 breast, with OVCAR-3 ovarian and in the experiment with LOX IMVI melanoma was over 100 µM throughout. Further, the TGI in the experiment on SNB-19 CNS, with SR leukemia, in the experiment with EKVX NSCLC and in the experiment with MDA-N was over 100 µM each time.
